Source: publication PMC7503225, “Repositioning Dequalinium as Potent Muscarinic Allosteric Ligand by Combining Virtual Screening Campaigns and Experimental Binding Assays” (International Journal of Molecular Sciences, 2020)

What was measured:
hM1 muscarinic receptor = target: T1, hM1 muscarinic receptor (Homo sapiens, UniProt P11229); experiment: Equilibrium inhibition binding with [3H]-NMS, CHO cell membranes; settings: [3H]-NMS 0.2 nM, mean ± SEM of 3-4 experiments, read-out: pKi hM1 (converted)
T1 construct: expressed in transfected cells; host or cells: CHO cells, stably transfected; membrane fractions
T1 sequence (P11229 1-460): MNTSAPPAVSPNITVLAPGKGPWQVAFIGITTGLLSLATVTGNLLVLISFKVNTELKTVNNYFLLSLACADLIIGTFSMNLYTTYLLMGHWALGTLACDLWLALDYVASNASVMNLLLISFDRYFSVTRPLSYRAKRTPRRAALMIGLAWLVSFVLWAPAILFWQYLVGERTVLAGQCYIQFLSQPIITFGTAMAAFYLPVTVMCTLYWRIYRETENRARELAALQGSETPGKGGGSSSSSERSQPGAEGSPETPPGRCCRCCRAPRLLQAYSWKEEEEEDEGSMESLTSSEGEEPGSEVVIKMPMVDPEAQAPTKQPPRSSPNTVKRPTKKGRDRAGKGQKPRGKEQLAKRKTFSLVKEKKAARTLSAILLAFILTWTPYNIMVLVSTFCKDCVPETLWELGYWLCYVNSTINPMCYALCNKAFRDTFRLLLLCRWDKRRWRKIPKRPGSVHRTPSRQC
Protocol: (§1) All tested compounds were purchased from Merck KGaA (Darmstadt, Germany). The radioligand binding experiments were performed with membranes from Chinese Hamster Ovary (CHO) cells stably transfected with the five cloned human muscarinic receptor subtypes (hM1-5). Membrane fractions were prepared according to the protocol, which have been previously described; membranes were stored at −80 °C until use. Nonspecific binding was defined by the radioactivity bound in the presence of 10 µM atropine.
(§2) Aliquots of membranes (25–70 µg/mL) were added and incubated for 2 h at room temperature, filtered through UniFilter GF/B plates (PerkinElmer Life and Analytical Science, Monza, Italy) using a FilterMate cell harvester (PerkinElmer Life and Analytical Science, Monza, Italy). The filters were washed several times with ice-cold MilliQ water. Then, the plates were counted in a β-counter (TopCount NXT microplate scintillation counter, PerkinElmer Life and Analytical Science, Monza, Italy).
(§3) Data points from radioligand inhibition binding curve were fitted to models using nonlinear regression equation to determine inhibitor potency (IC50) estimates, which were then converted to Ki values as appropriate.
(§4) All the results are expressed as means ± SEM obtained from 3-4 independent experiments each one performed in duplicate.

hM2 muscarinic receptor = target: T2, hM2 muscarinic receptor (Homo sapiens, UniProt P08172); experiment: as above; settings: [3H]-NMS 0.2 nM, mean ± SEM of 3-4 experiments, read-out: pKi hM2 (converted)
T2 construct: expressed in transfected cells; host or cells: CHO cells, stably transfected; membrane fractions
T2 sequence (P08172 1-466): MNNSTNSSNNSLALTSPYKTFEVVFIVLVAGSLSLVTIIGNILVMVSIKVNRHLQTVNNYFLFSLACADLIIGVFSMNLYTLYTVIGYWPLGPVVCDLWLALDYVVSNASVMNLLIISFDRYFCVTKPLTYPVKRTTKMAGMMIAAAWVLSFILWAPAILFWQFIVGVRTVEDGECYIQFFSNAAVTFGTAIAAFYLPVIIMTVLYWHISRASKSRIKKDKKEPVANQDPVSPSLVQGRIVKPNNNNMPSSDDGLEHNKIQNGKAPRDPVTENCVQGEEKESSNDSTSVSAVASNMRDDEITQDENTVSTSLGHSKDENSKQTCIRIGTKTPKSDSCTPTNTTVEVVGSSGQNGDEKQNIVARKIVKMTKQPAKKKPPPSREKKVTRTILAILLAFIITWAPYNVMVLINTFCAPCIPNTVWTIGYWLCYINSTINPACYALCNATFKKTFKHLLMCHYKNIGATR
Protocol: as §1, §2, §3, §4

hM3 muscarinic receptor = target: T3, hM3 muscarinic receptor (Homo sapiens, UniProt P20309); experiment: as above; settings: [3H]-NMS 0.2 nM, mean ± SEM of 3-4 experiments, read-out: pKi hM3 (converted)
T3 construct: expressed in transfected cells; host or cells: CHO cells, stably transfected; membrane fractions
Protocol: as §1, §2, §3, §4

[1] = target: T4, [3H]-NMS-occupied muscarinic hM2 subtype (Homo sapiens, UniProt P08172); experiment: One point kinetic (off-rate) assay of [3H]-NMS dissociation; type: binding
T4 construct: expressed in transfected cells; host or cells: CHO cells, stably transfected; membrane fractions
T4 sequence (P08172 1-466): T2 sequence (P08172 1-466)
Protocol: as §1
(§5) Off-rate assays were performed as described elsewhere to estimate the affinity of the ligands for the [^3H]-NMS-occupied receptor (log Kocc). Briefly, a high concentration of membranes (about 0.1 mg/mL) was incubated with a high concentration of [^3H]-NMS (2 nM) for 60 min at room temperature (mix membrane). Next, 100 µL aliquots were distributed into polypropylene tubes that were empty or in a final volume of 1 mL binding buffer with 1 µM atropine alone and in the presence of a range of concentrations of tested compound (1 nM–0.1 mM).
(§6) The effect on the radioligand dissociation of each tested ligand was determined at 0 min and at one time point, which was chosen to be ca 2.5 dissociation half-lives of [^3H]-NMS alone from each subtype receptors. Later (80 min for hM1, 20 min for hM2 and 70 min for hM5), the samples were filtered and counted as previously reported. Non specific binding was measured as previously reported.
as §4

[2] = target: T5, [3H]-NMS-occupied muscarinic hM1 subtype (Homo sapiens, UniProt P11229); experiment: biochemical
T5 sequence (P11229 1-460): T1 sequence (P11229 1-460)
Protocol: as §1, §5, §6, §4

hM2 subtype = target: T6, hM2 subtype (Homo sapiens, UniProt P08172); experiment: Full time course [3H]-NMS dissociation kinetic assay; type: binding; settings: versus control, concentration 0.3 μM
T6 construct: expressed in transfected cells; host or cells: CHO cells, stably transfected; membrane fractions
T6 sequence (P08172 1-466): T2 sequence (P08172 1-466)
Protocol: as §1
Dissociation binding assays were conducted in assay buffer at room temperature as above described. Membranes were preincubated with 2 nM [^3H]-NMS for 60 min at room temperature (mix membrane). […] Nonspecific binding was measured in separately prepared tubes containing 100 µL of mix membrane plus atropine 10 µM. […]
Radioligand dissociation rates in absence or in presence of the allosteric modulator were analyzed by non linear regression according to the equation for mono-exponential decay using GraphPad Prism 5.02.
as §4

[3] = target: five human muscarinic receptors subtypes (hM1–hM5); experiment: Equilibrium binding, summary statements over the five subtypes
Protocol: as §1, §2, §3, §4

T3 sequence (P20309 whole entry): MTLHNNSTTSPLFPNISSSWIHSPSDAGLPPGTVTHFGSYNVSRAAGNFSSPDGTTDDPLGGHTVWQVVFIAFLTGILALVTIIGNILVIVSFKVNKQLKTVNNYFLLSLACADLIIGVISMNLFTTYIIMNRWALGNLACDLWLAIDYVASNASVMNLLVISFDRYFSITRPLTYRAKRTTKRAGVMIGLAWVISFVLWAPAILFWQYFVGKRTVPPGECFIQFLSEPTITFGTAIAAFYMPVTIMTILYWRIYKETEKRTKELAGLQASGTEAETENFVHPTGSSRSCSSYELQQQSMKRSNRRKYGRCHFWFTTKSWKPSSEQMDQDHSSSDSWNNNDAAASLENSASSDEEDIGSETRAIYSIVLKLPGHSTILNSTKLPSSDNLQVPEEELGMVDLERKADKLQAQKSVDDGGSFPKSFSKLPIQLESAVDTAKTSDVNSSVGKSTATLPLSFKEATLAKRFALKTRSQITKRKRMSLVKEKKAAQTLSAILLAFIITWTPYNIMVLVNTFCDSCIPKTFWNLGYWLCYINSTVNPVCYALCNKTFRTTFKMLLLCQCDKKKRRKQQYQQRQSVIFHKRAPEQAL

Compound: Cc1cc(N)c2ccccc2[n+]1CCCCCCCCCC[n+]1c(C)cc(N)c2ccccc21 [dequalinium]
- Ki (hM1 muscarinic receptor): 41.7 nM
- Ki (hM2 muscarinic receptor): 661 nM
- Ki (hM3 muscarinic receptor): 170 nM
- selectivity ratio hM2/hM1 ([1]; from log Kocc values): 10.7
- selectivity ratio hM2/hM5 ([1]; from log Kocc values): 174
- Kd ([1]; read-out: Log Kocc hM2 (converted)): 19.1 nM
- Kd [2]: 204 nM
- t1/2 reduction (hM2 subtype): 17.3 fold
- pKi values (muscarinic subtypes overall) [3]: greater than 7.0
